Test [1] relates to Jurkat. Nature of the test: Inhibition of anti-CD3 plus anti-CD28-induced IL2 secretion in Jurkat cells. The format is functional, Homo sapiens.
For test [2], the system named is Jurkat. The experiment in a line: Inhibition of PMA plus ionomycin-induced IL2 secretion in Jurkat cells. The note with it: Homo sapiens. The format is functional, cell-based.
For test [3], the system named is Jurkat. The experiment in a line: Cytotoxic activity against Jurkat cells upto 500 ug/mL by MTT assay. The test is classed as functional, cell-based. The note with it: Homo sapiens. On the technique in general: Formazan colour is commonly taken as a measure of viable cells.

The source made the active and inactive calls. No cut-off for these calls is given here.

Broadly, the Inhibition is the relative decrease from the control value, in per cent. For the compound `O=C(/C=C/c1ccc(O)c(O)c1)O[C@@H]1C[C@@](OC(=O)/C=C/c2ccc(O)c(O)c2)(C(=O)O)C[C@@H](O)[C@@H]1O` [CYNARIN], the Inhibition in test [1] was -53%. The result in test [2] was inactive. In test [3], the Activity result was “Non-toxic”.

For the origin of these results see ChEMBL document CHEMBL1138157, “Immuno-suppressive effect of blocking the CD28 signaling pathway in T-cells by an active component of Echinacea found by a novel pharmaceutical screening method” (2006).
